Measurements as given in the NIST ThermoML archive (doi:10.1016/j.fluid.2016.08.035).
± gives the expanded uncertainty stated by the source.

Tests used:
[1] = xn = mol fraction of the nth substance listed; settings: 101 kPa, Liquid, x2 = 0; for viscosity: Falling or rolling sphere viscometry; for speed of sound: Sing-around technique in a fixed-path interferometer; for mass density: Vibrating tube method
[2] = molar heat capacity at constant pressure; xn = mol fraction of the nth substance listed; settings: 101 kPa, Liquid, DSC, x2 = 0

Compound | viscosity ([1]; 278.15 K) | speed of sound ([1]; 278.15 K) | mass density ([1]; 278.15 K) | viscosity ([1]; 298.15 K) | speed of sound ([1]; 298.15 K) | mass density ([1]; 298.15 K) | viscosity ([1]; 318.15 K) | speed of sound ([1]; 318.15 K) | mass density ([1]; 318.15 K) | viscosity ([1]; 338.15 K) | speed of sound ([1]; 338.15 K) | mass density ([1]; 338.15 K) | molar heat capacity at constant pressure ([2]; 278.15 K) | molar heat capacity at constant pressure ([2]; 298.15 K) | molar heat capacity at constant pressure ([2]; 318.15 K) | molar heat capacity at constant pressure ([2]; 338.15 K)
CCCCCCCC [octane] + CC12CCC(CC1)C(C)(C)O2 | 0.68 ± 0.04 mPa·s | 1256.7 ± 1.3 m/s | 714.55 ± 0.17 kg/m3 | 0.53 ± 0.04 mPa·s | 1172.7 ± 1.2 m/s | 698.51 ± 0.17 kg/m3 | 0.43 ± 0.04 mPa·s | 1090.7 ± 1.2 m/s | 682.19 ± 0.18 kg/m3 | 0.37 ± 0.04 mPa·s | 1010.7 ± 1.2 m/s | 665.43 ± 0.18 kg/m3 | 246.17 ± 9.5 J/K/mol | 253.89 ± 9.8 J/K/mol | 262.16 ± 10 J/K/mol | 270.96 ± 10 J/K/mol
CCCCCCCCCC [decane] + CC12CCC(CC1)C(C)(C)O2 | 1.19 ± 0.04 mPa·s | 1315 ± 1.5 m/s | 741.18 ± 0.24 kg/m3 | 0.86 ± 0.04 mPa·s | 1234.7 ± 1.5 m/s | 726.11 ± 0.24 kg/m3 | 0.66 ± 0.04 mPa·s | 1156.6 ± 1.5 m/s | 710.89 ± 0.24 kg/m3 | 0.54 ± 0.04 mPa·s | 1080.5 ± 1.5 m/s | 695.42 ± 0.25 kg/m3 | 305.94 ± 12 J/K/mol | 314.4 ± 12 J/K/mol | 323.94 ± 13 J/K/mol | 334.32 ± 13 J/K/mol
CCCCCC [hexane] + CC12CCC(CC1)C(C)(C)O2 | 0.39 ± 0.04 mPa·s | 1169 ± 1.5 m/s | 673.1 ± 0.25 kg/m3 | 0.34 ± 0.04 mPa·s | 1078.2 ± 1.5 m/s | 655.3 ± 0.25 kg/m3 | 0.3 ± 0.04 mPa·s | 988.59 ± 1.5 m/s | 636.71 ± 0.25 kg/m3 | 0.26 ± 0.04 mPa·s | 901.09 ± 1.5 m/s | 617.44 ± 0.26 kg/m3 | 188.32 ± 7.3 J/K/mol | 194.96 ± 7.5 J/K/mol | 201.96 ± 7.8 J/K/mol | 208.99 ± 8.1 J/K/mol
